Laboratory results: patent publication US20240174696A1, “2,8-DIAZASPIRO[4.5]DECANE COMPOUNDS” (Genentech, Inc., priority 2021, published 2024)

How the values were obtained:
[1] = molecular target: Human LATS2 catalytic domain (Homo sapiens (Human), UniProt Q9NRM7); experiment: LATS2 High ATP HTRF Assay; assay type: biochemical; settings: no asterisk: LATS2 High ATP HTRF Assay, 5000 μM ATP, 0.05 nM LATS2
Method: Human LATS2 catalytic domain which contains the amino acids G553-V1088 (accession NP_055387) was purified in-house. The LATS2 catalytic domain was co-purified with Mob1b (accession NP_775739). The LATS2 biochemical HTRF assay was performed using the HTRF KinEASE-STK S1 Kit (Cisbio, Cat #62ST1PEC), following the protocol from the manufacturer. Compounds were dispensed by the Echo Liquid Handler (Labcyte) into a white 384-well plate (PerkinElmer, Cat #6008289). 3 uL of 2×LATS2 enzyme solution was added to the compounds, following by a 10 minute incubation at room temperature. Then, 2×ATP and STK S1 peptide solution was added to initiate the one hour enzyme reaction at room temperature. The final condition of the reaction was 0.2 nM LATS2, 50 μM ATP, 0.5 μM STK S1 peptide in 50 mM HEPES pH7.2, 10 mM MgCl2, 0.1% BGG, 0.005% Brij-35, 1 mM DTT. The reaction was quenched by adding 6 uL of the detection mixture which contained Streptavidin XL665 and STK Antibody-Cryptate (Cisbio), incubate for 1 hour at room temperature. The HTRF (665 nm/620 nm) signal was read on the Envision plater reader (PerkinElmer). The IC50 values were determined by fitting the % inhibition with a nonlinear four-parameter logistical equation. The Ki values were calculated using the Cheng-Prusoff equation for a competitive inhibitor, IC50═Ki (1+S/Km)+M [E] with ATP Km for LATS2=105 μM.
The LATS2 high ATP HTRF assay was performed using the same protocol as the Standard LATS2 HTRF assay. The final condition of the reaction was 0.05 nM LATS2, 5000 μM ATP, 0.5 μM STK S1 peptide in 50 mM HEPES pH7.2, 10 mM MgCl2, 0.1% BGG, 0.005% Brij-35, 1 mM DTT and the 2 hours enzyme reaction at room temperature.

[2] = system: TAZ nuclear translocation in SW1990 cells; experiment: TAZ Nuclear Translocation Assay; assay type: cell-based; settings: Homo sapiens, 4 hours
Method: The SW1990 cells (ATCC, CRL2172) were seeded at 5000 cells/well by adding 30 μL/well of cells in RPMI1640, 10% FBS, 2 mM glutamine culture media to a 384-well plate (Greiner 781091). The cells were incubated overnight at 37° C. Next day, test compounds were directly added to the cells using the Echo Liquid Handler (Labcyte), incubate at 37° C. for 4 hours. The cells were fixed with 4% paraformaldehyde and incubate for 20 minutes at room temperature. After washing three times with 100 μL PBS, 0.5% Triton X-100 was added to permeabilize the cells, incubate at room temperature for 5 minutes, following by washing the cells three times with PBS. 3% BSA was added to the cells, incubate for one hour at room temperature, following by washing three times with PBS. 50 μL of 1:750 diluted rabbit Anti-TAZ (Cell signaling D316D) in 3% BSA was added to the cells, incubate at 4° C. overnight. Next day, after washing the cells three times with PBS, 50 μL of 1:1250 diluted donkey anti-Rabbit, Alexa Fluor 488 (Invitrogen A21206) and 1:6250 diluted Hoechst 33342 (Molecular Probes H-21492) in 3% BSA was added to the cells, incubate at room temperature for one hour. The cells were washed three times with PBS, then image with the CellInsight CX7 High-Content Imager. The ratio of nuclear mean fluorescence intensity and cytoplasmic ring region mean fluorescence intensity was calculated. The % inhibition was normalized using DMSO as 0% inhibition and an inhibitor control as 100% inhibition. The EC50 values were calculated by fitting the % inhibition with a nonlinear four-parameter logistical equation.

Sequence of Human LATS2 catalytic domain (Q9NRM7 553-1088): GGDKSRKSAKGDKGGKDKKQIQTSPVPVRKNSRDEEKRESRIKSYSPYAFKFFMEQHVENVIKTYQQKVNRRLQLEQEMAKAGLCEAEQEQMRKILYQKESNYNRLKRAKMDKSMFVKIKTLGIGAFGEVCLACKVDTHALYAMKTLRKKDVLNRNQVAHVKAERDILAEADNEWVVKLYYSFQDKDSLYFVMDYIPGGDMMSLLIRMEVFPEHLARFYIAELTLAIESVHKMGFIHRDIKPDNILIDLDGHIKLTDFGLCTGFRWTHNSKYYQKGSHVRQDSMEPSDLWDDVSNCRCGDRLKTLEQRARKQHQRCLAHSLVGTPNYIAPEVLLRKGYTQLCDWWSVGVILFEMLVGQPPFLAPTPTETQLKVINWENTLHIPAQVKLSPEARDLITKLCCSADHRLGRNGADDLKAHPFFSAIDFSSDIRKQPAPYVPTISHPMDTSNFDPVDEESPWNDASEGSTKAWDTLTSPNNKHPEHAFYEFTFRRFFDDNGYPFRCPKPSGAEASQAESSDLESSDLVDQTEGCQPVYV
Sequence of Human LATS2 catalytic domain (Q7L9L4 whole entry partner, the tested form may be a part): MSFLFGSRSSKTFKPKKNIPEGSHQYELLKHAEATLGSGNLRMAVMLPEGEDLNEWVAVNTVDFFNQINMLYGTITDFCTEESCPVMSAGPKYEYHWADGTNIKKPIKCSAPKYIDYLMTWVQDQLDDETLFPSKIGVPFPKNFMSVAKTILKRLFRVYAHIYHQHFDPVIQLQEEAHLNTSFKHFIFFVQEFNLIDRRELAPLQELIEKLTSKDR

SMILES | Ki [1] [nM] | EC50 [2] [nM]
Cc1n[nH]cc1-c1nc(N2CCC3(CC2)CCN([C@@H]2CCC[C@H]2O)C3)c2ccncc2n1 (single isomer, unassigned) [Compound 184] | 0.037 | 1400
Cc1[nH]ncc1-c1nc(N2CCC3(CC2)CCN([C@H]2CCC[C@@H]2O)C3)c2ccncc2n1 (single isomer, unassigned) [Compound 185] | 0.047 | 860
COC[C@H]1CC2(CCN(c3nc(-c4ccncc4)nc4cnccc34)CC2)CN1 (single isomer, unassigned) [Example 221] | 0.32 | 230
COC[C@@H]1CC2(CCN(c3nc(-c4ccncc4)nc4cnccc34)CC2)CN1 (single isomer, unassigned) [Example 222] | 0.1 | 340
Cc1[nH]ncc1-c1nc(N2CCC3(CC2)CCN([C@@H]2CC[C@H]2O)C3)c2ccncc2n1 (single isomer, unassigned) [Example 228] | 0.067 | 2700
Cc1[nH]ncc1-c1nc(N2CCC3(CC2)CCN([C@H]2CC[C@@H]2O)C3)c2ccncc2n1 (single isomer, unassigned) [Example 229] | 0.063 | 2100
Cc1[nH]ncc1-c1nc(N2CCC3(CC2)CCN([C@@H]2CC[C@@H]2O)C3)c2ccncc2n1 (single isomer, unassigned) [Example 230] | 0.043 | 1000
Cc1[nH]ncc1-c1nc(N2CCC3(CC2)CCN([C@H]2CC[C@H]2O)C3)c2ccncc2n1 (single isomer, unassigned) [Example 231] | 0.11 | 900
NS(=O)(=O)CCN1CCC2(CCN(c3nc(-c4ccncc4)nc4cnccc34)CC2)C1 [Compound 109, 2-(8-(2-(pyridin-4-yl)pyrido[3,4-d]pyrimidin-4-yl)-2,8-diazaspiro[4.5]decan-2-yl)ethanesulfonamide] | 0.043 | 3800
CC(C)N1CCC2(CCN(c3nc(-c4ccncc4)nc4cnccc34)CC2)C1 [Compound 117, 4-(2-isopropyl-2,8-diazaspiro[4.5]decan-8-yl)-2-(pyridin-4-yl)pyrido[3,4-d]pyrimidine] | 0.41 | 1600
c1cc(-c2nc(N3CCC4(CC3)CCN(C3CCCCC3)C4)c3ccncc3n2)ccn1 [Compound 119, 4-(2-cyclohexyl-2,8-diazaspiro[4.5]decan-8-yl)-2-(pyridin-4-yl)pyrido[3,4-d]pyrimidine] | 0.03 | 430
CC(=O)NCCN1CCC2(CCN(c3nc(-c4ccncc4)nc4cnccc34)CC2)C1 [Compound 123, N-(2-(8-(2-(pyridin-4-yl)pyrido[3,4-d]pyrimidin-4-yl)-2,8-diazaspiro[4.5]decan-2-yl)ethyl)acetamide] | 1.09 | 2100
CS(=O)(=O)NCCN1CCC2(CCN(c3nc(-c4ccncc4)nc4cnccc34)CC2)C1 [Compound 126, N-(2-(8-(2-(pyridin-4-yl)pyrido[3,4-d]pyrimidin-4-yl)-2,8-diazaspiro[4.5]decan-2-yl)ethyl)methanesulfonamide] | 0.11 | 960
NC(=O)CN1CCC2(CCN(c3nc(-c4ccncc4)nc4cnccc34)CC2)C1 [Compound 130, 2-(8-(2-(pyridin-4-yl)pyrido[3,4-d]pyrimidin-4-yl)-2,8-diazaspiro[4.5]decan-2-yl)acetamide] | 0.45 | 1200
NC(=O)CCN1CCC2(CCN(c3nc(-c4ccncc4)nc4cnccc34)CC2)C1 [Compound 132, 3-(8-(2-(pyridin-4-yl)pyrido[3,4-d]pyrimidin-4-yl)-2,8-diazaspiro[4.5]decan-2-yl)propanamide] | 0.25 | 2400
FCCN1CCC2(CCN(c3nc(-c4ccncc4)nc4cnccc34)CC2)C1 [Compound 134, 4-(2-(2-fluoroethyl)-2,8-diazaspiro[4.5]decan-8-yl)-2-(pyridin-4-yl)pyrido[3,4-d]pyrimidine] | 0.72 | 1100
FCCCN1CCC2(CCN(c3nc(-c4ccncc4)nc4cnccc34)CC2)C1 [Compound 135, 4-(2-(3-fluoropropyl)-2,8-diazaspiro[4.5]decan-8-yl)-2-(pyridin-4-yl)pyrido[3,4-d]pyrimidine] | 0.063 | 420
N#CCCN1CCC2(CCN(c3nc(-c4ccncc4)nc4cnccc34)CC2)C1 [Compound 136, 3-(8-(2-(pyridin-4-yl)pyrido[3,4-d]pyrimidin-4-yl)-2,8-diazaspiro[4.5]decan-2-yl)propanenitrile] | 0.45 | 3200
c1cc(-c2nc(N3CCC4(CCN(c5cn[nH]c5)C4)CC3)c3ccncc3n2)ccn1 [Compound 141, 4-(2-(1H-pyrazol-4-yl)-2,8-diazaspiro[4.5]decan-8-yl)-2-(pyridin-4-yl)pyrido[3,4-d]pyrimidine] | 3.29 | > 10000
Cc1n[nH]cc1-c1nc(N2CCC3(CCNC3)CC2)c2ccncc2n1 [Compound 142, 2-(3-methyl-1H-pyrazol-4-yl)-4-(2,8-diazaspiro[4.5]decan-8-yl)pyrido[3,4-d]pyrimidine] | 0.037 | > 10000
Cc1n[nH]cc1-c1nc(N2CCC3(CCN(CCO)C3)CC2)c2ccncc2n1 [Compound 146, 2-(8-(2-(3-methyl-1H-pyrazol-4-yl)pyrido[3,4-d]pyrimidin-4-yl)-2,8-diazaspiro[4.5]decan-2-yl)ethan-1-ol] | 0.088 | 2700
Cc1n[nH]cc1-c1nc(N2CCC3(CC2)CCN(C2CCOC2)C3)c2ccncc2n1 (stereo not drawn) [Compound 148, 2-(3-methyl-1H-pyrazol-4-yl)-4-(2-(tetrahydrofuran-3-yl)-2,8-diazaspiro[4.5]decan-8-yl)pyrido[3,4-d]pyrimidine] | 0.12 | 560
Cc1n[nH]cc1-c1nc(N2CCC3(CCN(CCCO)C3)CC2)c2ccncc2n1 [Compound 149, 3-(8-(2-(3-methyl-1H-pyrazol-4-yl)pyrido[3,4-d]pyrimidin-4-yl)-2,8-diazaspiro[4.5]decan-2-yl)propan-1-ol] | 0.045 | 2500
Cc1n[nH]cc1-c1nc(N2CCC3(CCN(CC(C)(C)O)C3)CC2)c2ccncc2n1 [Compound 150, 2-methyl-1-(8-(2-(3-methyl-1H-pyrazol-4-yl)pyrido[3,4-d]pyrimidin-4-yl)-2,8-diazaspiro[4.5]decan-2-yl)propan-2-o0] | 0.059 | 280
Cc1n[nH]cc1-c1nc(N2CCC3(CCN(CC4COC4)C3)CC2)c2ccncc2n1 [Compound 152, 2-(3-methyl-1H-pyrazol-4-yl)-4-(2-(oxetan-3-ylmethyl)-2,8-diazaspiro[4.5]decan-8-yl)pyrido[3,4-d]pyrimidine] | 0.053 | 840
Clc1[nH]ncc1-c1nc(N2CCC3(CCNC3)CC2)c2ccncc2n1 [Compound 153, 2-(5-chloro-1H-pyrazol-4-yl)-4-(2,8-diazaspiro[4.5]decan-8-yl)pyrido[3,4-d]pyrimidine] | 0.11 | > 10000
c1cc2c(N3CCC4(CCNC4)CC3)nc(-c3ccnc4[nH]ccc34)nc2cn1 [Compound 156, 2-(1H-pyrrolo[2,3-b]pyridin-4-yl)-4-(2,8-diazaspiro[4.5]decan-8-yl)pyrido[3,4-d]pyrimidine] | 0.7 | 4600
